Test results published in PubChem BioAssay AID192 (DTP/NCI, 2004).
Where “and” joins values, the source holds several entries; their conditions need not be identical. Equal entries are not always repeated. Inconclusive results and toxic doses are left out. Rule for the calls: active = survival T/C of 150% or more; inactive = T/C below 125% in these data.

System: BDF1 mice, B16 melanoma ip, median survival T/C
Experiment: NCI In Vivo Anticancer Drug Screen. Data for tumor model B16 Melanoma (intraperitoneal) in B6D2F1 (BDF1) mice
Conditions: endpoint: median survival time, higher = longer survival
Procedure: The antitumor activity of compounds was measured in mice bearing transplantable tumors. Survival or tumor size were measured and the results are expressed as the measurement made in the treated group (T) divided by the measurement made in the vehicle treated control group (C). The tumor model used in this assay is B16 Melanoma (intraperitoneal) in B6D2F1 (BDF1) mice

[1] = dose: 6.25 mg/kg/injection, schedule: Q01DX009 (ip), vehicle: saline with Tween-80
[2] = dose: 12.5 mg/kg/injection, schedule: Q01DX009 (ip), vehicle: saline with Tween-80
[3] = dose: 25.0 mg/kg/injection, schedule: Q01DX009 (ip), vehicle: saline with Tween-80
[4] = dose: 50.0 mg/kg/injection, schedule: Q01DX009 (ip), vehicle: saline with Tween-80
[5] = dose: 6.25 mg/kg/injection, schedule: Q01DX009 (ip), vehicle: Klucel (hydroxypropylcellulose) (HPC)
[6] = dose: 12.5 mg/kg/injection, schedule: Q01DX009 (ip), vehicle: Klucel (hydroxypropylcellulose) (HPC)
[7] = dose: 25.0 mg/kg/injection, schedule: Q01DX009 (ip), vehicle: Klucel (hydroxypropylcellulose) (HPC)
[8] = dose: 50.0 mg/kg/injection, schedule: Q01DX009 (ip), vehicle: Klucel (hydroxypropylcellulose) (HPC)
[9] = dose: 100.0 mg/kg/injection, schedule: Q01DX009 (ip), vehicle: saline with Tween-80
[10] = dose: 5.0 mg/kg/injection, schedule: Q01DX009 (ip), vehicle: saline with Tween-80
[11] = dose: 10.0 mg/kg/injection, schedule: Q01DX009 (ip), vehicle: saline with Tween-80
[12] = dose: 100.0 mg/kg/injection, schedule: Q01DX009 (ip), vehicle: saline
[13] = dose: 200.0 mg/kg/injection, schedule: Q01DX009 (ip), vehicle: saline
[14] = dose: 3.12 mg/kg/injection, schedule: Q01DX009 (ip), vehicle: Klucel (hydroxypropylcellulose) (HPC)
[15] = dose: 100.0 mg/kg/injection, schedule: Q01DX009 (ip), vehicle: Klucel (hydroxypropylcellulose) (HPC)
[16] = dose: 200.0 mg/kg/injection, schedule: Q01DX009 (ip), vehicle: saline with Tween-80
[17] = dose: 400.0 mg/kg/injection, schedule: Q01DX009 (ip), vehicle: saline with Tween-80
[18] = dose: 25.0 mg/kg/injection, schedule: Q01DX009 (ip), vehicle: saline

Measured: T/C

O=C(O)CC(NC(=O)c1ccccc1)C(=O)O (configuration not stated)
inactive: [1] 100 % of control | [2] 102 % of control | [3] 109 % of control | [4] 93 % of control and 100 % of control

CCCN(C)N=Nc1ccccc1C(=O)O
inactive: dose: 1.56 mg/kg/injection, schedule: Q01DX009 (ip), vehicle: saline with Tween-80 100 % of control | dose: 3.12 mg/kg/injection, schedule: Q01DX009 (ip), vehicle: saline with Tween-80 103 % of control | dose: 3.13 mg/kg/injection, schedule: Q01DX009 (ip), vehicle: saline with Tween-80 111 % of control | [5] 116 % of control | [1] 101 % of control and 102 % of control | [6] 110 % of control | [2] 98 % of control and 102 % of control and 105 % of control | [7] 104 % of control | [3] 102 % of control and 107 % of control and 115 % of control | [8] 107 % of control | [4] 100 % of control

O=C(O)C1Cc2c([nH]c3ccccc23)C(CCCCO)N1 (configuration not stated)
inactive: [5] 99 % of control | [6] 101 % of control | [7] 107 % of control

CCOc1ccc(NC(=O)C2CCC(C)(C(=O)O)C2(C)C)cc1 (configuration not stated)
inactive: dose: 66.0 mg/kg/injection, schedule: Q01DX009 (ip), vehicle: saline with Tween-80 88 % of control | [9] 100 % of control | dose: 150.0 mg/kg/injection, schedule: Q01DX009 (ip), vehicle: saline with Tween-80 113 % of control

CCCCCCCCOC(=O)Nc1ccc(OCC)cc1
inactive: dose: 1.5 mg/kg/injection, schedule: Q01DX009 (ip), vehicle: saline with Tween-80 107 % of control | dose: 3.0 mg/kg/injection, schedule: Q01DX009 (ip), vehicle: saline with Tween-80 96 % of control | dose: 6.0 mg/kg/injection, schedule: Q01DX009 (ip), vehicle: saline with Tween-80 96 % of control

Nc1ccc(-c2ccc3ccccc3n2)cc1
inactive: [5] 111 % of control | [6] 104 % of control | [7] 91 % of control

O=C(Nc1ccccc1C(F)(F)F)C(c1ccccc1)c1ccccc1
inactive: [2] 101 % of control | [3] 98 % of control | [4] 97 % of control

C[n+]1ccccc1/C=C/c1cccc([N+](=O)[O-])c1
inactive: [10] 110 % of control | dose: 5.0 mg/kg/injection, schedule: Q04DX003 (ip), vehicle: saline with Tween-80 105 % of control | [11] 100 % of control | dose: 20.0 mg/kg/injection, schedule: Q01DX009 (ip), vehicle: saline with Tween-80 100 % of control | dose: 20.0 mg/kg/injection, schedule: Q04DX003 (ip), vehicle: saline with Tween-80 89 % of control

CCCCCCCCCCCCCCCCCCNC(=S)N/N=C/c1ccc(Cl)cc1Cl
inactive: [12] 87 % of control | [13] 95 % of control

Cc1ccccc1CN1CCN(CCOC(c2ccccc2)c2ccccc2Cl)CC1 (configuration not stated)
inactive: [14] 93 % of control and 94 % of control | [5] 93 % of control | [6] 91 % of control and 100 % of control | [7] 86 % of control and 89 % of control | [8] 86 % of control

COc1ccc2cc3[n+](cc2c1OC)CCc1cc2c(cc1-3)OCO2
inactive: dose: 1.5 mg/kg/injection, schedule: Q01DX009 (ip), vehicle: carboxymethylcellulose (CMC) 105 % of control | dose: 2.5 mg/kg/injection, schedule: Q01DX009 (ip), vehicle: Klucel (hydroxypropylcellulose) (HPC) 106 % of control | dose: 2.5 mg/kg/injection, schedule: Q01DX009 (ip), vehicle: saline with Tween-80 100 % of control | dose: 2.5 mg/kg/injection, schedule: Q02DX005 (ip), vehicle: Klucel (hydroxypropylcellulose) (HPC) 109 % of control | dose: 3.0 mg/kg/injection, schedule: Q01DX009 (ip), vehicle: carboxymethylcellulose (CMC) 96 % of control | dose: 3.12 mg/kg/injection, schedule: Q01DX009 (ip), vehicle: carboxymethylcellulose (CMC) 95 % of control | dose: 5.0 mg/kg/injection, schedule: Q01DX009 (ip), vehicle: Klucel (hydroxypropylcellulose) (HPC) 108 % of control | [10] 110 % of control | dose: 5.0 mg/kg/injection, schedule: Q02DX005 (ip), vehicle: Klucel (hydroxypropylcellulose) (HPC) 110 % of control | [5] 105 % of control | [11] 102 % of control | dose: 10.0 mg/kg/injection, schedule: Q02DX005 (ip), vehicle: Klucel (hydroxypropylcellulose) (HPC) 100 % of control | [6] 106 % of control

CC(C)CC(NC(=O)c1ccccc1)C(=O)O (configuration not stated)
inactive: [9] 97 % of control

Clc1cc(CBr)c(Cl)c(Cl)c1CBr
inactive: dose: 1.56 mg/kg/injection, schedule: Q01DX009 (ip), vehicle: Klucel (hydroxypropylcellulose) (HPC) 94 % of control | [14] 88 % of control | [5] 94 % of control | [6] 92 % of control

NC(=O)C(Br)CBr (configuration not stated)
inactive: [7] 92 % of control | [3] 111 % of control | [8] 105 % of control | [4] 108 % of control | [15] 107 % of control | [9] 106 % of control

c1ccc(CSC2=NCCS2)cc1
inactive: [9] 102 % of control | [16] 105 % of control | [17] 97 % of control

Cc1cc(/C=C\c2ccc3ccccc3[n+]2C)c(O)c2ncccc12
inactive: [1] 106 % of control | [2] 101 % of control | [3] 101 % of control

OCc1ccccc1
inactive: [9] 94 % of control | [16] 100 % of control | [17] 108 % of control

c1ccc2sc(SSN3CCOCC3)nc2c1
inactive: [6] 97 % of control | [8] 94 % of control

CN(C)[C@@H]1C(=O)C(C(=O)NCN(CCCl)CCCl)=C(O)[C@@]2(O)C(=O)C3=C(O)c4c(O)cccc4[C@@](C)(O)[C@H]3C[C@@H]12
inactive: dose: 3.13 mg/kg/injection, schedule: Q01DX009 (ip), vehicle: Klucel (hydroxypropylcellulose) (HPC) 98 % of control | [5] 113 % of control | [7] 97 % of control

Clc1ccc2c(c1)C([P+](c1ccccc1)(c1ccccc1)c1ccccc1)c1cc(Cl)cc(Cl)c1-2 (configuration not stated)
inactive: [9] 89 % of control | [16] 95 % of control | [17] 89 % of control

CC(=O)Nc1nc(=O)n(CC(=O)c2cccs2)cc1F
inactive: dose: 6.25 mg/kg/injection, schedule: Q01DX009 (ip), vehicle: carboxymethylcellulose (CMC) 100 % of control | dose: 12.5 mg/kg/injection, schedule: Q01DX009 (ip), vehicle: carboxymethylcellulose (CMC) 99 % of control | dose: 25.0 mg/kg/injection, schedule: Q01DX009 (ip), vehicle: carboxymethylcellulose (CMC) 94 % of control | [8] 96 % of control | dose: 50.0 mg/kg/injection, schedule: Q01DX009 (ip), vehicle: carboxymethylcellulose (CMC) 102 % of control

CCN(CC)CCSC(=O)C(O)(c1ccccc1)C1CCCC1 (configuration not stated)
inactive: [18] 124 % of control

O=C(O)CCC(=O)CCC(=O)c1ccccc1
inactive: [4] 95 % of control | [9] 100 % of control | [16] 93 % of control

CCOC(=O)C[Si](C)(C)C
inactive: [7] 102 % of control | [8] 108 % of control | [15] 86 % of control | dose: 200.0 mg/kg/injection, schedule: Q01DX009 (ip), vehicle: Klucel (hydroxypropylcellulose) (HPC) 107 % of control | dose: 400.0 mg/kg/injection, schedule: Q01DX009 (ip), vehicle: Klucel (hydroxypropylcellulose) (HPC) 97 % of control

CC1=Nc2ccccc2/C1=C\c1c(C)[nH]c2ccccc12
inactive: [18] 110 % of control | dose: 50.0 mg/kg/injection, schedule: Q01DX009 (ip), vehicle: saline 113 % of control | [12] 121 % of control | [13] 97 % of control

CCOC(=O)C(=Cc1ccc(Cl)cc1)C(=O)OCC
inactive: [6] 94 % of control | [8] 94 % of control | [15] 89 % of control

C=CC(CO)N1CC1 (configuration not stated)
inactive: dose: 1.0 mg/kg/injection, schedule: Q01DX009 (ip), vehicle: other 119 % of control | dose: 2.0 mg/kg/injection, schedule: Q01DX009 (ip), vehicle: other 116 % of control | dose: 4.0 mg/kg/injection, schedule: Q01DX009 (ip), vehicle: other 111 % of control | dose: 6.25 mg/kg/injection, schedule: Q04DX003 (ip), vehicle: other 100 % of control | dose: 8.0 mg/kg/injection, schedule: Q01DX009 (ip), vehicle: other 113 % of control | dose: 12.5 mg/kg/injection, schedule: Q04DX003 (ip), vehicle: other 100 % of control | dose: 25.0 mg/kg/injection, schedule: Q04DX003 (ip), vehicle: other 96 % of control | dose: 50.0 mg/kg/injection, schedule: Q04DX003 (ip), vehicle: other 109 % of control
